In data set [1] the test system is Diabrotica balteata. Description: Diabrotica balteata spray test. Format: in vivo. The settings on record: application rate 160 μg/well, wheat grains with beetle larvae, after 7 days. Here is the method:
Diabrotica balteata—Spray Test Solvent: 78 parts by weight of acetone • • 1.5 parts by weight of dimethylformamide Emulsifier: alkylaryl polyglycol ether
(§1) To produce a suitable active ingredient formulation, 1 part by weight of active ingredient is dissolved with the stated parts by weight of solvent and made up with water containing an emulsifier concentration of 1000 ppm until the desired concentration is attained. To produce further test concentrations, the formulation is diluted with emulsifier-containing water.
Pre-swollen wheat grains (Triticum aestivum) are incubated in a multiwell plate filled with agar and a little water for one day (5 seed grains per cavity). The germinated wheat grains are sprayed with an active ingredient formulation of the desired concentration. Subsequently, each cavity is infected with 10-20 beetle larvae of Diabrotica balteata.
After 7 days, the efficacy in % is determined. 100% means that all wheat plants have grown as in the untreated, uninfected control; 0% means that no wheat plant has grown.

Data set [2] deals with Myzus persicae. Description: Myzus persicae spray test (Chinese cabbage leaf discs). Format: in vivo. The settings on record: application rate 500 g/ha, after 6 days. As to the method:
Myzus persicae—Spray Test Solvent: 78 parts by weight of acetone • • 1.5 parts by weight of dimethylformamide Emulsifier: alkylaryl polyglycol ether
as §1
Discs of Chinese cabbage leaves (Brassica pekinensis) infested by all stages of the green peach aphid (Myzus persicae) are sprayed with an active ingredient formulation of the desired concentration.
After 6 days, the efficacy in % is determined. 100% means that all the aphids have been killed; 0% means that no aphids have been killed.

In data set [3] the test system is Myzus persicae. As to the kind of experiment: Myzus persicae oral test. Format: in vivo. The conditions noted are these: application rate 20 ppm, oral uptake through parafilm, after 5 days. In a few lines:
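Oral feeding format: mixed-stage Myzus persicae imbibe acetone/water compound formulation in sugared IPL41 medium through parafilm. Efficacy assessed as percent aphids killed at day 5.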

Data set [4] is described as follows: log P by HPLC on reversed-phase column (EEC directive 79/831 Annex V.A8). Format: physicochemical. The conditions noted are these: for log p: HPLC on reversed-phase column (footnote a); for log p a): HPLC on reversed-phase column. In a few lines: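 Reversed-phase (C18) HPLC at 43° C, following EEC directive 79/831 Annex V.A8.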
Data set [5] concerns Myzus persicae. Description: Myzus persicae spray test (bell pepper plants). The format is in vivo. The settings on record: application rate 100 ppm, after 6 days. As to the method: Myzus persicae—Spray Test Solvent: 14 parts by weight of dimethylformamide Emulsifier: alkylaryl polyglycol ether
To produce a suitable active ingredient formulation, 1 part by weight of active ingredient is dissolved with the stated parts by weight of solvent and made up with water containing an emulsifier concentration of 1000 ppm until the desired concentration is attained. To produce further test concentrations, the formulation is diluted with emulsifier-containing water. If the addition of ammonium salts or/and penetrants is required, these are each added in a concentration of 1000 ppm to the formulation solution.
Bell pepper plants (Capsicum annuum) severely infested with the green peach aphid (Myzus persicae) are treated by spraying with the active ingredient formulation in the desired concentration.
After 6 days, the kill in % is determined. 100% means that all of the aphids have been killed; 0% means that none of the aphids have been killed.

The subject of data set [6] is Lucilia cuprina. As to the kind of experiment: Lucilia cuprina test. The format is in vivo. The conditions noted are these: application rate 100 ppm, L1 larvae, after 2 days. As to the method:
Lucilia cuprina Test Solvent: dimethyl sulphoxide
To produce a suitable active ingredient formulation, 10 mg of active ingredient are mixed with 0.5 ml of dimethyl sulphoxide, and the concentrate is diluted with water to the desired concentration.
About 20 L1 larvae of the Australian sheep blowfly (Lucilia cuprina) are transferred into a test vessel containing minced horsemeat and the active ingredient formulation of the desired concentration.
After 2 days, the kill in % is determined. 100% means that all the larvae have been killed; 0% means that no larvae have been killed.

Read-outs that look alike come from different tables or passages of the source.

As to `O=C(Cn1cc(Cl)cn1)c1c([O-])n(Cc2ccc(Cl)nc2)c2cccc[n+]12` [Example I-1-004], the efficacy stood at 100% in data set [1], 90% in data set [2] and 100% in data set [3]. The log p in data set [4] worked out at 1.96.
The compound `COc1cnn(CC(=O)c2c([O-])n(Cc3cnc(Cl)s3)c3cccc[n+]23)c1` [Example I-1-013] showed an efficacy in data set [3] of 100%. For the same compound, in data set [5], the “efficacy (kill in %)” value came out at 85%. In data set [4], this compound gave a log p of 1.58.
Turning to `CC(C)SCC(=O)c1c([O-])n(Cc2cnc(Cl)s2)c2cccc[n+]12` [Example I-1-027], the “efficacy (kill in %)” value in data set [6] turned out to be 90%. For the same compound, the efficacy in data set [1], in data set [2] and in data set [3] was 100% throughout. Also, the log p in data set [4] was determined as 2.27.
A word on the chromatographic logP: it is lipophilicity estimated from chromatographic retention. Read a high chromatographic logP as a more lipophilic compound. On to `CCSCC(=O)c1c([O-])n(Cc2cnc(Cl)s2)c2cccc[n+]12` [Example I-1-028, 1-[(2-Chloro-1,3-thiazol-5-yl)methyl]-3-[(ethylsulphanyl)acetyl]-1H-imidazo[1,2-a]pyridin-4-ium-2-olate], for which the efficacy in data set [1] is on record as 100%; in data set [2] it was 90%. For the same compound, the pest or weed control at 20 ppm in data set [3] (Myzus persicae, 120 h, read-out: efficacy) is 100%. Further, the chromatographic logP in data set [4] and in data set [4] (pH 2.7) was 1.99 throughout.
As to `CC(=O)c1c([O-])n(Cc2ccc(Cl)nc2)c2cccc[n+]12` [Example I-1-036], the efficacy in data set [1] was 100%; in data set [2], 90%; in data set [3], 100%. The compound further returned a log p in data set [4] of 1.2.
The compound `CSc1cnn(CC(=O)c2c([O-])n(Cc3cnc(Cl)s3)c3cccc[n+]23)c1` [Example I-1-044] registered an efficacy in data set [3] of 100%. Also, the “efficacy (kill in %)” value in data set [5] stood at 80%. This compound displayed a log p in data set [4] of 1.97.
Consider `O=C(Cn1cc(C(F)(F)F)cn1)c1c([O-])n(Cc2cnc(Cl)s2)c2cccc[n+]12` [Example I-1-045], for which the efficacy was found to be 80% in data set [1] and 100% in data set [3]. Also, the “efficacy (kill in %)” value in data set [5] was determined as 95%. In data set [4], the log p turned out to be 2.37.
In turn, `O=C(Cn1ccnc1Cl)c1c([O-])n(Cc2cnc(Cl)s2)c2cccc[n+]12` [Example I-1-046] returned an efficacy in data set [3] of 100%. Besides, the “efficacy (kill in %)” value in data set [5] came to 95%. This compound gave a log p in data set [4] of 1.44.
The matching figures for `CC(=O)N(CC(=O)c1c([O-])n(Cc2cnc(Cl)s2)c2cccc[n+]12)C1CC1` [Example I-1-062]: 100%, 95% and 1.58.
As to `COCCOCC(=O)c1c([O-])n(Cc2cnc(Cl)s2)c2cccc[n+]12` [Example I-1-087], in data set [6], the “efficacy (kill in %)” value is given as 100%. The efficacy in data set [1], in data set [2] and in data set [3] was 100% each time. In data set [4], the log p was 1.38.
With `O=C(CO)c1c([O-])n(Cc2cnc(Cl)s2)c2cccc[n+]12` [Example I-1-089], the “efficacy (kill in %)” value in data set [6] was determined as 90%. In data set [3], this compound gave an efficacy of 100%. This compound also had a log p in data set [4] of 1.14.
`CCOCC(=O)c1c([O-])n(Cc2ccc(Cl)nc2)c2ccc(C)c[n+]12` [Example I-1-113] came in with an efficacy in data set [3] of 100%. Moreover, in data set [5], the “efficacy (kill in %)” value was determined as 95%. For the same compound, the log p in data set [4] stood at 1.66.
In turn, `CCOCC(=O)c1c([O-])n(Cc2ccc(Cl)nc2)c2cccc(C)[n+]12` [Example I-1-114] had an efficacy in data set [3] of 100%. Besides, the “efficacy (kill in %)” value in data set [5] is 85%. In data set [4], this compound showed a log p of 1.47.
As to `O=C(Nc1ccccc1)c1c([O-])n(Cc2cnc(Cl)s2)c2cccc[n+]12` [Example I-1-145], the “efficacy (kill in %)” value in data set [6] and in data set [5] was 100% in each case. In addition, the efficacy in data set [1] and in data set [3] was 100% each time. The compound also had a log p in data set [4] of 2.73.
As to `COCC(=O)c1c([O-])n(Cc2cnc(Cl)c(Cl)c2)c2cccc[n+]12` [Example I-1-179], in data set [3], the efficacy was found to be 100%. In data set [5], the “efficacy (kill in %)” value came to 95%. In data set [4], this compound gave a log p of 1.66.
Consider `COCC(=O)c1c([O-])n(Cc2ccc(Cl)nc2)c2c(C)ccc[n+]12` [Example I-1-193], for which the efficacy in data set [3] was 100%. In data set [5], the “efficacy (kill in %)” value is 100%. For the same compound, the log p in data set [4] is 1.38.
With `O=C(Nc1ccc(F)cc1)c1c([O-])n(Cc2cnc(Cl)s2)c2cccc[n+]12` [Example I-1-227], the efficacy in data set [1] and in data set [3] was 100% throughout. For the same compound, in data set [5], the “efficacy (kill in %)” value worked out at 99%. Moreover, in data set [4], the “log p a)” value is on record as 2.82.
In the case of `O=C(Nc1c(F)cccc1F)c1c([O-])n(Cc2cnc(Cl)s2)c2cccc[n+]12` [Example I-1-231], the efficacy in data set [1] and in data set [3] was 100% throughout. In addition, the “efficacy (kill in %)” value in data set [5] came to 99%. In data set [4], the “log p a)” value is 2.43.
As for `O=C(Nc1ccc(F)cc1F)c1c([O-])n(Cc2cnc(Cl)s2)c2cccc[n+]12` [Example I-1-232], the efficacy in data set [1] was 100%; in data set [3], 90%. In addition, the “log p a)” value in data set [4] came to 3.13.
The like results for `Cc1cccc(NC(=O)c2c([O-])n(Cc3cnc(Cl)s3)c3cccc[n+]23)c1` [Example I-1-235] were, in that order, 100%, 90% and 3.21.
As to `CNC(=O)c1c([O-])n(C(C)c2ccc(Cl)nc2)c2cccc[n+]12` (stereo not drawn) [Example I-1-246], the values for the efficacy in data set [1], in data set [2] and in data set [3] were 100%, 90% and 90%, respectively. Also, the “log p a)” value in data set [4] was 1.41.
In turn, `Cc1ccc[n+]2c(C(=O)NC3(C#N)CC3)c([O-])n(Cc3ccc(Cl)nc3)c12` [Example I-1-252] had an efficacy in data set [3] of 90%. Besides, in data set [5], the “efficacy (kill in %)” value is reported as 95%. Also, the “log p a)” value in data set [4] came to 1.78.
Consider `CCCNC(=O)c1c([O-])n(Cc2cnc(Cl)s2)c2c(C)ccc[n+]12` [Example I-1-267], for which the efficacy in data set [1] stood at 100%; in data set [2], 90%. In addition, the “log p a)” value in data set [4] is on record as 2.26.
As to `O=C(Nc1c(Cl)cccc1Cl)c1c([O-])n(Cc2cnc(Cl)s2)c2cccc[n+]12` [Example I-1-282], the efficacy is 100% in data set [1], 90% in data set [2] and 100% in data set [3]. In data set [4], the “log p a)” value turned out to be 2.8.
Consider `O=C(Nc1c(F)cccc1Cl)c1c([O-])n(Cc2cnc(Cl)s2)c2cccc[n+]12` [Example I-1-283], for which the efficacy in data set [1], in data set [2] and in data set [3] was 100% each time. In data set [4], the “log p a)” value amounted to 2.57.
As for `O=C(Nc1ncccc1F)c1c([O-])n(Cc2cnc(Cl)s2)c2cccc[n+]12` [Example I-1-284], the efficacy in data set [1] was 80%; in data set [2], 90%; in data set [3] it was 100%. In addition, the “log p a)” value in data set [4] was determined as 1.68.
For `COC(=O)c1c([O-])n(C(C)c2cnc(Cl)s2)c2c(C)ccc[n+]12` (stereo not drawn) [Example I-1-287], the efficacy in data set [1] is 80%; in data set [3] it was 100%. In addition, in data set [4], the “log p a)” value was found to be 1.68.
The matching figures for `Cc1ccc[n+]2c(C(=O)Nc3c(F)cccc3F)c([O-])n(C(C)c3cnc(Cl)s3)c12` (stereo not drawn) [Example I-1-288]: 100%, 100% and 2.76.
As for `Cc1ccc[n+]2c(C(=O)COC(C)C)c([O-])n(Cc3cnc(Cl)s3)c12` [Example I-1-292], the efficacy amounted to 100% in data set [1], 90% in data set [2] and 100% in data set [3]. Moreover, in data set [4], the “log p a)” value is on record as 1.97.

These data come from patent US20180282323A1, “Mesoionic imidazole derivatives as insecticides” (BAYER CROPSCIENCE AKTIENGESELLSCHAFT, priority 2015, published 2018).
